# Where two headings read alike, the source gives them in different places.
# Assays:
# SK-OV-3 = assay: NCI SRB cytotoxicity, SK-OV-3 (ovarian); assay type: cell-based, human; conditions: 48 hrs exposure
# Experimental: (§1) Biological Activity: The in vitro biological activity studies were carried out at the National Cancer Institute, Maryland, USA.
# (§2) The C8-linked isoxazoline-PBD hybrids have been tested against sixty human tumour cell lines derived from nine cancer types (leukemia, non-small cell lung cancer, colon cancer, CNS cancer, melanoma, ovarian cancer, renal cancer, prostate cancer and breast cancer) as per NCI protocol. For each compound, dose response curves for individual cell lines have been measured at a minimum of five concentrations at 10 fold dilutions. A protocol of 48 hrs continuous drug exposure has been used, and a sulforhodamine B (SRB) protein assay was used to estimate cell viability or growth. The concentration for 50% cell growth inhibition (GI50), total cell growth inhibition (TGI, 0% growth) and 50% cell death (LC50, […]) compared with the control has been calculated (FIG. 2).
# (§3) Compound 5b and 9b have been evaluated for in vitro cytotoxicity in sixty cell lines from nine human cancer types of lung (Hop-62, NCI-H226, NCI-H522), leukemia (K-562, SR), colon (HCT-116, HCT-15, HCC-2998), CNS(SF-539), melanoma (SK-MEL-5, UACC-62, M14), ovarian (IGROV1), renal (A498), prostate (PC3) breast (BT-549, MDA-MB-435, HS578T) origin. The results are expressed as percent of cell growth determined relative to that of untreated control cells (Table 1).
# MALME-3M = assay: NCI SRB cytotoxicity, MALME-3M (melanoma); assay type: cell-based, human; conditions: 48 hrs exposure
# Experimental: as §1, §2, §3
# RPMI-8226 = assay: NCI SRB cytotoxicity, RPMI-8226 (leukemia); assay type: cell-based, human; conditions: 48 hrs exposure
# Experimental: as §1, §2, §3
# A549/ATCC = assay: NCI SRB cytotoxicity, A549/ATCC (non-small cell lung); assay type: cell-based, human; conditions: Non-smallcell lung, 48 hrs exposure
# Experimental: as §1, §2, §3
# SR = assay: NCI SRB cytotoxicity, SR (leukemia); assay type: cell-based, human
# Experimental: as §1, §2, §3
# M14 = assay: NCI SRB cytotoxicity, M14 (melanoma); assay type: cell-based, human
# Experimental: as §1, §2, §3
# CAKI-1 = assay: NCI SRB cytotoxicity, CAKI-1 (renal); assay type: cell-based, human; conditions: 48 hrs exposure
# Experimental: as §1, §2, §3
# MCF7 = assay: NCI SRB cytotoxicity, MCF7 (breast); assay type: cell-based, human; conditions: 48 hrs exposure
# Experimental: as §1, §2, §3
# MDA-MB-468 = assay: NCI SRB cytotoxicity, MDA-MB-468 (breast); assay type: cell-based, human; conditions: 48 hrs exposure
# Experimental: as §1, §2, §3
# NCI-H522 = assay: NCI SRB cytotoxicity, NCI-H522 (non-small cell lung); assay type: cell-based, human
# Experimental: as §1, §2, §3
# Melanoma = assay: NCI SRB cytotoxicity, melanoma panel; assay type: cell-based, human; conditions: average of six to eight different cancer cell lines
# Experimental: as §1, §2, §3
# SF-539 = assay: NCI SRB cytotoxicity, SF-539 (CNS); assay type: cell-based, human
# Experimental: as §1, §2, §3
# UACC-62 = assay: NCI SRB cytotoxicity, UACC-62 (melanoma); assay type: cell-based, human
# Experimental: as §1, §2, §3
# IGROV1 = assay: NCI SRB cytotoxicity, IGROV1 (ovarian); assay type: cell-based, human
# Experimental: as §1, §2, §3
# K-562 = assay: NCI SRB cytotoxicity, K-562 (leukemia); assay type: cell-based, human
# Experimental: as §1, §2, §3
# [1] = test system: sixty human tumour cell lines; assay: NCI in vitro cytotoxicity, sixty human tumour cell lines (SRB); assay type: cell-based; conditions: for GI50: bound over all cell lines
# Experimental: as §1, §2, §3
# PC-3 = assay: NCI SRB cytotoxicity, PC-3 (prostate); assay type: cell-based, human
# Experimental: as §1, §2, §3
# HCC-2998 = assay: NCI SRB cytotoxicity, HCC-2998 (colon); assay type: cell-based, human
# Experimental: as §1, §2, §3
# HOP-92 = assay: NCI SRB cytotoxicity, HOP-92 (non-small cell lung); assay type: cell-based, human; conditions: HOP-92, Non-smallcell lung; 48 hrs exposure
# Experimental: as §1, §2, §3
# NCI-H226 = assay: NCI SRB cytotoxicity, NCI-H226 (non-small cell lung); assay type: cell-based, human
# Experimental: as §1, §2, §3
# T-47D = assay: NCI SRB cytotoxicity, T-47D (breast); assay type: cell-based, human; conditions: 48 hrs exposure
# Experimental: as §1, §2, §3
# [2] = test system: Non small cell lung cancer; assay: NCI SRB cytotoxicity, non-small cell lung cancer panel; assay type: cell-based, human; conditions: average of six to eight different cancer cell lines
# Experimental: as §1, §2, §3
# HCT-15 = assay: NCI SRB cytotoxicity, HCT-15 (colon); assay type: cell-based, human
# Experimental: as §1, §2, §3
# NCI-H460 = assay: NCI SRB cytotoxicity, NCI-H460 (non-small cell lung); assay type: cell-based, human; conditions: NCI-H460, Non-smallcell lung; 48 hrs exposure
# Experimental: as §1, §2, §3
# HS 578T = assay: NCI SRB cytotoxicity, HS 578T (breast); assay type: cell-based, human
# Experimental: as §1, §2, §3
# NCI-H23 = assay: NCI SRB cytotoxicity, NCI-H23 (non-small cell lung); assay type: cell-based, human; conditions: NCI-H23, Non-smallcell lung; 48 hrs exposure
# Experimental: as §1, §2, §3
# Breast = assay: NCI SRB cytotoxicity, breast cancer panel; assay type: cell-based, human; conditions: average of six to eight different cancer cell lines
# Experimental: as §1, §2, §3
# CCRF-CEM = assay: NCI SRB cytotoxicity, CCRF-CEM (leukemia); assay type: cell-based, human; conditions: 48 hrs exposure
# Experimental: as §1, §2, §3
# U251 = assay: NCI SRB cytotoxicity, U251 (CNS); assay type: cell-based, human; conditions: 48 hrs exposure
# Experimental: as §1, §2, §3
# Prostate = assay: NCI SRB cytotoxicity, prostate cancer panel; assay type: cell-based, human; conditions: average of six to eight different cancer cell lines
# Experimental: as §1, §2, §3
# LOX IMVI = assay: NCI SRB cytotoxicity, LOX IMVI (melanoma); assay type: cell-based, human; conditions: 48 hrs exposure
# Experimental: as §1, §2, §3
# UO-31 = assay: NCI SRB cytotoxicity, UO-31 (renal); assay type: cell-based, human; conditions: 48 hrs exposure
# Experimental: as §1, §2, §3
# TK-10 = assay: NCI SRB cytotoxicity, TK-10 (renal); assay type: cell-based, human; conditions: 48 hrs exposure
# Experimental: as §1, §2, §3
# HOP-62 = assay: NCI SRB cytotoxicity, HOP-62 (non-small cell lung); assay type: cell-based, human
# Experimental: as §1, §2, §3
# SNB-75 = assay: NCI SRB cytotoxicity, SNB-75 (CNS); assay type: cell-based, human; conditions: 48 hrs exposure
# Experimental: as §1, §2, §3
smiles,measurement,setting,value
"COc1cc(C2=NOC(c3cc(OC)c(OC)c(OC)c3)C2)ccc1OCCCCOc1cc2c(cc1OC)C(=O)N1CCC[C@H]1C=N2 (stereo partly drawn) [Compound 5b, (11aS)-7-(methyloxy)-8-(4-[(2-(methyloxy)-4-5-[3,4,5-tri(methyloxy)phenyl]-4,5-dihydro-3-isoxazolylphenyl)oxy]butyloxy)-2,3,5,11a-tetrahydro-1H benzo[e]pyrrolo[1,2-a][1,4]diazepin-5-one]",GI50,SK-OV-3,0.47 µM
same,GI50,MALME-3M,0.21 µM
same,GI50,RPMI-8226,0.24 µM
same,GI50,A549/ATCC,0.26 µM
same,GI50,"SR; SR, Leukemia, 48 hrs exposure",0.14 µM
same,GI50,SR; leukemia SR,0.14 µM
same,GI50,"M14; M14, Melanoma, 48 hrs exposure",0.18 µM
same,GI50,M14; melanoma M14,0.18 µM
same,GI50,CAKI-1,0.25 µM
same,GI50,MCF7,0.2 µM
same,GI50,MDA-MB-468,0.22 µM
same,GI50,"NCI-H522; NCI-H522, Non-smallcell lung, 48 hrs exposure",0.12 µM
same,GI50,NCI-H522; non-small cell lung cancer NCI-H522,0.12 µM
same,Log10 LC50,Melanoma; 50% lethality,−5.82 mol/L
same,Log10GI50,Melanoma,−6.68 mol/L
same,GI50,SF-539; CNS SF-539,0.22 µM
same,GI50,"SF-539; SF-539, CNS, 48 hrs exposure",0.22 µM
same,GI50,"UACC-62; UACC-62, Melanoma, 48 hrs exposure",0.16 µM
same,GI50,UACC-62; melanoma UACC-62,0.16 µM
same,GI50,"IGROV1; IGROV1, Ovarian, 48 hrs exposure",0.24 µM
same,GI50,IGROV1; ovarian IGROV1,0.24 µM
same,GI50,"K-562; K-562, Leukemia, 48 hrs exposure",0.12 µM
same,GI50,K-562; leukemia K-562,0.12 µM
same,GI50,[1]; read-out: GI50 against sixty cell lines in nine cell panels,< 0.47 µM
same,in vitro cytotoxicity (in words),[1]; human cancer cell lines,significant cytotoxicity
same,Log10 GI50 mean graph midpoint (MG_MID),"[1]; human tumour cell lines, mean graph midpoint",−6.59
same,Log10 TGI mean graph midpoint (MG_MID),"[1]; human tumour cell lines, mean graph midpoint, total cell growth inhibition",−6.05
same,activity of 5b compared with 9b,"[1]; in vitro cytotoxicity, comparison of GI50",ten folds higher activity than 9b
same,GI50,"[1]; text b111, read-out: GI50 against sixty cell lines in nine cancer cell panels",< 0.47 µM
same,GI50,"PC-3; PC-3, Prostate, 48 hrs exposure",0.32 µM
same,GI50,PC-3; prostate PC-3,0.32 µM
same,GI50,"HCC-2998; HCC-2998, Colon, 48 hrs exposure",0.19 µM
same,GI50,HCC-2998; colon cancer HCC-2998,0.19 µM
same,GI50,HOP-92,0.31 µM
same,GI50,"NCI-H226; NCI-H226, Non-smallcell lung, 48 hrs exposure",0.17 µM
same,GI50,NCI-H226; non-small cell lung cancer NCI-H226,0.31 µM
same,GI50,T-47D,0.28 µM
same,Log10 LC50,[2]; 50% lethality,−4.78 mol/L
same,Log10GI50,[2],−6.59 mol/L
same,GI50,"HCT-15; HCT-15, Colon, 48 hrs exposure",0.18 µM
same,GI50,HCT-15; colon cancer HCT-15,0.19 µM
same,GI50,NCI-H460,0.21 µM
same,GI50,"HS 578T; HS 578T, Breast, 48 hrs exposure",0.16 µM
same,GI50,HS 578T; breast HS 578T,0.16 µM
same,GI50,NCI-H23,0.27 µM
same,Log10 LC50,Breast; 50% lethality,−4.52 mol/L
same,Log10GI50,Breast,−6.74 mol/L
same,GI50,CCRF-CEM,0.16 µM
same,GI50,U251,0.3 µM
same,Log10 LC50,Prostate; 50% lethality,−4.82 mol/L
same,Log10GI50,Prostate,−6.49 mol/L
same,GI50,LOX IMVI,0.22 µM
same,GI50,UO-31,0.29 µM
same,GI50,TK-10,0.28 µM
same,GI50,"HOP-62; HOP-62, Non-smallcell lung, 48 hrs exposure",0.27 µM
same,GI50,HOP-62; non-small cell lung cancer HOP-62,0.27 µM
same,GI50,SNB-75,0.32 µM
